Test results: US20230091047A1 (priority 2019, published 2023)

How the values were obtained:
[1] = system: HBV (HepG2.117 cell line, inducibly HBV producing); assay: Anti-HBV activity: intracellular HBV DNA by real-time PCR in HepG2.117 cells after 3 days of treatment; format: cell-based, hepatitis B virus; details: Hepatitis B virus, HepG2.117, 72 h, HepG2.117 cells, intracellular HBV DNA by real-time PCR, 3 days of treatment, mean value; read-out: EC50 (μM, mean value)
Procedure, shortened: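 HepG2.117 cells (Tet-off, inducible HBV production) were induced to replicate HBV by doxycycline absence, then treated with serially diluted compound for 3 days. Activity was quantified as intracellular HBV DNA by real-time PCR using an HBV-specific primer set and probe.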

in vitro = format: cell-based; details: human, HepG2 or HepG2.117 cells, ATPlite, 3-days incubation (not marked with *), mean value
Procedure, shortened: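 Luminescent ATP quantitation served as the viability endpoint following a 3- or 4-day incubation with test compounds.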

CNC(=O)c1ccc(-n2c(NC(C)C)nc3c(c2=O)C[C@@H](C)N(C(=O)c2cc4c(OC(F)(F)F)cccc4[nH]2)C3)cc1 [Compound C587]
EC50 [1]: 0.09 µM
CC50 at 3 days (in vitro): 9.2 µM

CNC(=O)c1ccc(-n2c(NC(C)C)nc3c(c2=O)C[C@@H](C)N(C(=O)c2ccc(Br)c4c2OCCC4)C3)cc1 [Compound C588]
EC50 [1]: 1.61 µM
CC50 at 3 days (in vitro): > 50 µM

CNC(=O)c1ccc(-n2c(NC(C)C)nc3c(c2=O)C[C@@H](C)N(C(=O)c2ccc(Br)c(C)c2)C3)cc1 [Compound C589]
EC50 [1]: 0.04 µM
CC50 at 3 days (in vitro): > 50 µM

CNC(=O)c1ccc(-n2c(NC(C)C)nc3c(c2=O)C[C@@H](C)N(C(=O)c2cc(Cl)c(Cl)cc2OC)C3)cc1 [Compound C590]
EC50 [1]: 12.4 µM
CC50 at 3 days (in vitro): > 50 µM

CNC(=O)c1ccc(-n2c(NC(C)C)nc3c(c2=O)C[C@@H](C)N(C(=O)c2cc4sc(Br)cc4[nH]2)C3)cc1 [Compound C591]
EC50 [1]: 0.01 µM
CC50 at 3 days (in vitro): 23.2 µM

CNC(=O)c1ccc(-n2c(NC(C)C)nc3c(c2=O)C[C@@H](C)N(C(=O)c2cc(F)c(Br)cc2Cl)C3)cc1 [Compound C592]
EC50 [1]: 0.7 µM
CC50 at 3 days (in vitro): > 50 µM

CNC(=O)c1ccc(-n2c(NC(C)C)nc3c(c2=O)C[C@@H](C)N(C(=O)c2ccc(Cl)cc2OC)C3)cc1 [Compound C593]
EC50 [1]: > 25 µM
CC50 at 3 days (in vitro): > 50 µM

CNC(=O)c1ccc(-n2c(NC(C)C)nc3c(c2=O)C[C@@H](C)N(C(=O)c2cc4ccc(Cl)c(F)c4[nH]2)C3)cc1 [Compound C594]
EC50 [1]: 0.04 µM
CC50 at 3 days (in vitro): 26.1 µM

CNC(=O)c1ccc(-n2c(N(C)Cc3nc(C)n[nH]3)nc3c(c2=O)C[C@@H](C)N(C(=O)c2ccc(Cl)c(Cl)c2)C3)cc1 [Compound C595]
EC50 [1]: > 25 µM
CC50 at 3 days (in vitro): > 50 µM

CNC(=O)c1ccc(-n2c(NC(C)c3ccc(C(F)(F)F)s3)nc3c(c2=O)C[C@@H](C)N(C(=O)c2ccc(Cl)c(Cl)c2)C3)cc1 (some centres unmarked) [Compound C596]
EC50 [1]: 0.4 µM
CC50 at 3 days (in vitro): 25.5 µM

CNC(=O)c1ccc(-n2c(NCc3cccc(-c4nnc[nH]4)c3)nc3c(c2=O)C[C@@H](C)N(C(=O)c2ccc(Cl)c(Cl)c2)C3)cc1 [Compound C597]
EC50 [1]: 9.49 µM
CC50 at 3 days (in vitro): > 50 µM

CNC(=O)c1ccc(-n2c(NCc3nc(C(F)(F)F)n[nH]3)nc3c(c2=O)C[C@@H](C)N(C(=O)c2ccc(Cl)c(Cl)c2)C3)cc1 [Compound C598]
EC50 [1]: > 25 µM
CC50 at 3 days (in vitro): > 50 µM

CNC(=O)c1ccc(-n2c(NCCCc3nc(=O)[nH][nH]3)nc3c(c2=O)C[C@@H](C)N(C(=O)c2ccc(Cl)c(Cl)c2)C3)cc1 [Compound C599]
EC50 [1]: > 25 µM
CC50 at 3 days (in vitro): > 50 µM

CNC(=O)c1ccc(-n2c(NCc3n[nH]c(=O)[nH]3)nc3c(c2=O)C[C@@H](C)N(C(=O)c2ccc(Cl)c(Cl)c2)C3)cc1 [Compound C600]
EC50 [1]: > 25 µM
CC50 at 3 days (in vitro): > 50 µM

CNC(=O)c1ccc(-n2c(NCC(n3cncn3)C(F)(F)F)nc3c(c2=O)C[C@@H](C)N(C(=O)c2ccc(Cl)c(Cl)c2)C3)cc1 (some centres unmarked) [Compound C601]
EC50 [1]: 7.71 µM
CC50 at 3 days (in vitro): > 50 µM

CNC(=O)c1ccc(-n2c(NC(C)C)nc3c(c2=O)C[C@@H](C)N(C(=O)c2cc(Br)cc(C(F)(F)F)c2)C3)cc1 [Compound C602]
EC50 [1]: 0.38 µM
CC50 at 3 days (in vitro): > 25 µM

CNC(=O)c1ccc(-n2c(N(C)Cc3cnn(-c4ccccc4)n3)nc3c(c2=O)C[C@@H](C)N(C(=O)c2ccc(Cl)c(Cl)c2)C3)cc1 [Compound C603]
EC50 [1]: 0.21 µM
CC50 at 3 days (in vitro): > 50 µM

CNC(=O)c1ccc(-n2c(NC(C)C)nc3c(c2=O)C[C@@H](C)N(C(=O)c2ccc4c(c2)C=CS4(=O)=O)C3)cc1 [Compound C604]
EC50 [1]: > 25 µM
CC50 at 3 days (in vitro): > 50 µM

CCN(Cc1ccc2c(c1)OCO2)c1nc2c(c(=O)n1-c1ccc(C(=O)NC)cc1)C[C@@H](C)N(C(=O)c1ccc(Cl)c(Cl)c1)C2 [Compound C605]
EC50 [1]: 0.15 µM
CC50 at 3 days (in vitro): > 50 µM

CNC(=O)c1cc(-n2c(N[C@@H](C)c3ccc(OC(F)(F)F)cc3)nc3c(c2=O)C[C@@H](C)N(C(=O)c2ccc(Cl)c(Cl)c2)C3)[nH]n1 [Compound C607]
EC50 [1]: 0.14 µM
CC50 at 3 days (in vitro): 11.4 µM

CNC(=O)c1ccc(-n2c(N[C@@H](C)c3ccc(C(F)F)cc3)nc3c(c2=O)C[C@@H](C)N(C(=O)c2ccc(Cl)c(Cl)c2)C3)cc1 [Compound C609]
EC50 [1]: 0.08 µM
CC50 at 3 days (in vitro): 18.7 µM

CC(C)Nc1nc2c(c(=O)n1-c1ccc(-c3nnc[nH]3)cc1)C[C@@H](C)N(C(=O)c1ccc(Cl)c(Cl)c1)C2 [Compound C610]
EC50 [1]: 0.17 µM
CC50 at 3 days (in vitro): > 50 µM
